Data set [1] can be described thus: Negative control: incubation in histidine acetate buffer pH 6 without Papain, UPLC-MS. It is filed as physicochemical. To be noted: pH 6, Papain NO, 37° C., 18 h (10, 18) or 67 h (26); for Ratio DXd / s.m.: based on peak area (UV 254 nm). The protocol:
To an Eppendorf vial containing histidine acetate buffer (110 μL, 20 mM, pH 6) was added a solution of 10 in DMF (3 μL, 10 mM).
To an Eppendorf vial containing histidine acetate buffer (110 μL, 20 mM, pH 6) was added a solution of 18 in DMF (3 μL, 10 mM).
To an Eppendorf vial containing histidine acetate buffer (110 μL, 20 mM, pH 6) was added a solution of 26 in DMF (3 μL, 10 mM). […] The intermediate 26-Int was not observed.

A short description of data set [2]: Incubation in 1:1 PBS (pH 7.4) / DMF, UPLC-MS. It is filed as physicochemical. To be noted: pH 7.4, Papain NO, 1:1 PBS/DMF, overnight; based on peak area (UV 254 nm). The protocol: To a 1:1 mixture of PBS (pH 7.4) and DMF (199 μL) was added a 10 mM solution of 10 in DMF (1 μL). The mixture was incubated overnight and analyzed by UPLC-MS. Intermediate 10-Int and DXd were not observed.
To a 1:1 mixture of PBS (pH 7.4) and DMF (199 μL) was added a 10 mM solution of 18 in DMF (1 μL). The mixture was incubated overnight and analysed by UPLC-MS. Intermediate 18-Int and DXd were not observed.
To a 1:1 mixture of PBS (pH 7.4) and DMF (199 μL) was added a 10 mM solution of 26 in DMF (1 μL). The mixture was incubated overnight and analysed by UPLC-MS. Intermediate 26-Int and DXd were not observed.

In another data set the target is T1, Papain (Carica papaya, UniProt P00784).
T1 sequence (P00784 134-345): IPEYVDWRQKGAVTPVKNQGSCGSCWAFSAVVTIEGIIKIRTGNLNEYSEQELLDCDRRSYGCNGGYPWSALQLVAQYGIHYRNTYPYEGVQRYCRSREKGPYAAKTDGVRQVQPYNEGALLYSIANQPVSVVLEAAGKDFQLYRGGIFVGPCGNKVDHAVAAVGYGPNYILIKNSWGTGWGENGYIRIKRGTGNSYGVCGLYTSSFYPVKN
Briefly: Papain digestion of linker-drug in histidine acetate buffer, UPLC-MS. The format is in vitro ADME. To be noted: pH 6, Papain YES, 37° C., 19 h (10, 18) or 67 h (26). The protocol:
To an Eppendorf vial containing histidine acetate buffer (50 μL, 20 mM, pH 6) were added a solution of 10 in DMF (3 μL, 10 mM) and a Papain solution in histidine acetate buffer (0.5 mg/mL, 20 mM buffer, pH 6).
To an Eppendorf vial containing histidine acetate buffer (50 μL, 20 mM, pH 6) were added a solution of 18 in DMF (3 μL, 10 mM) and a Papain solution in histidine acetate buffer (0.5 mg/mL, 20 mM buffer, pH 6).
To an Eppendorf vial containing histidine acetate buffer (50 μL, 20 mM, pH 6) were added a solution of 26 in DMF (3 μL, 10 mM) and a Papain solution in histidine acetate buffer (0.5 mg/mL, 20 mM buffer, pH 6).

“Also recorded” adds a separate entry of the source.

Consider `CC[C@@]1(O)C(=O)OCc2c1cc1n(c2=O)Cc2c-1nc1cc(F)c(C)c3c1c2[C@@H](NC(=O)COC1(OCc2ccc(NC(=O)[C@H](C)NC(=O)[C@@H](NC(=O)OCCOCCNC(=O)OC[C@@H]4[C@@H]5CCC#CCC[C@@H]54)C(C)C)cc2)CCCCC1)CC3` [Compound 26], for which, in data set [1], the “Formation of DXd” value is “partial conversion of 26 into DXd; also recorded: + / −”. The “Ratio DXd / s.m.” value in data set [2] came out at 0.

Take `CC[C@@]1(O)C(=O)OCc2c1cc1n(c2=O)Cc2c-1nc1cc(F)c(C)c3c1c2[C@@H](NC(=O)COCOCc1ccc(NC(=O)[C@H](C)NC(=O)[C@@H](NC(=O)OCCOCCNC(=O)OC[C@@H]2[C@@H]4CCC#CCC[C@@H]42)C(C)C)cc1)CC3` [Compound 10]: at Papain, the “Formation of DXd” value is listed as “only a very small amount of material was transformed into DXd; also recorded: + / −”. Also, the “Ratio DXd / s.m.” value in data set [1] and in data set [2] was 0 in each case.

On to `CC[C@@]1(O)C(=O)OCc2c1cc1n(c2=O)Cc2c-1nc1cc(F)c(C)c3c1c2[C@@H](NC(=O)COC(C)OCc1ccc(NC(=O)[C@H](C)NC(=O)[C@@H](NC(=O)OCCOCCNC(=O)OC[C@@H]2[C@@H]4CCC#CCC[C@@H]42)C(C)C)cc1)CC3` (stereo partly shown) [Compound 18], for which the “Ratio DXd / s.m.” value in data set [1] and in data set [2] was 0 in each case.
